# Publication PMC3769651 (Scientific Reports, 2013)
# Molecular target: vchNADK (Vibrio cholerae, UniProt Q9KTP8, K2E/N76T)
smiles,measurement,value
NC(=O)c1ccc[n+]([C@@H]2O[C@H](COP(=O)(O)OP(=O)(O)OC[C@H]3O[C@@H](n4cnc5c(N)ncnc54)[C@H](OP(=O)(O)O)[C@@H]3O)[C@@H](O)[C@H]2O)c1 [NADP^+],% residual activity at 0.20 mM,39%
